“And” between values parts separate entries of the source, which are not always exact repeats. Equal entries are not always repeated. Where two headings read alike, the source gives them in different places.
Key:
human TRPA1 = target: T1, human TRPA1 (Homo sapiens, UniProt O75762, K186N/R3C/R58T); assay: Intracellular calcium (Fluo-4, FLIPR) activation of TRPA1 cells by GRAS compounds; assay type: cell-based; conditions: for activation at 1000 µM / activation at 100 µM: read-out: A1 activation, % of agonist value;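 for all read-outs here: TRPA1-expressing cells, fluorescence read on a FLIPR Tetra (ex 488 nm, em 514 nm) every 2 s for 10 min after compound addition, baseline subtracted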
T1 construct: expressed in transfected cells; pcDNA3 control cells
T1 sequence (O75762 whole entry R3C/R58T/K186N): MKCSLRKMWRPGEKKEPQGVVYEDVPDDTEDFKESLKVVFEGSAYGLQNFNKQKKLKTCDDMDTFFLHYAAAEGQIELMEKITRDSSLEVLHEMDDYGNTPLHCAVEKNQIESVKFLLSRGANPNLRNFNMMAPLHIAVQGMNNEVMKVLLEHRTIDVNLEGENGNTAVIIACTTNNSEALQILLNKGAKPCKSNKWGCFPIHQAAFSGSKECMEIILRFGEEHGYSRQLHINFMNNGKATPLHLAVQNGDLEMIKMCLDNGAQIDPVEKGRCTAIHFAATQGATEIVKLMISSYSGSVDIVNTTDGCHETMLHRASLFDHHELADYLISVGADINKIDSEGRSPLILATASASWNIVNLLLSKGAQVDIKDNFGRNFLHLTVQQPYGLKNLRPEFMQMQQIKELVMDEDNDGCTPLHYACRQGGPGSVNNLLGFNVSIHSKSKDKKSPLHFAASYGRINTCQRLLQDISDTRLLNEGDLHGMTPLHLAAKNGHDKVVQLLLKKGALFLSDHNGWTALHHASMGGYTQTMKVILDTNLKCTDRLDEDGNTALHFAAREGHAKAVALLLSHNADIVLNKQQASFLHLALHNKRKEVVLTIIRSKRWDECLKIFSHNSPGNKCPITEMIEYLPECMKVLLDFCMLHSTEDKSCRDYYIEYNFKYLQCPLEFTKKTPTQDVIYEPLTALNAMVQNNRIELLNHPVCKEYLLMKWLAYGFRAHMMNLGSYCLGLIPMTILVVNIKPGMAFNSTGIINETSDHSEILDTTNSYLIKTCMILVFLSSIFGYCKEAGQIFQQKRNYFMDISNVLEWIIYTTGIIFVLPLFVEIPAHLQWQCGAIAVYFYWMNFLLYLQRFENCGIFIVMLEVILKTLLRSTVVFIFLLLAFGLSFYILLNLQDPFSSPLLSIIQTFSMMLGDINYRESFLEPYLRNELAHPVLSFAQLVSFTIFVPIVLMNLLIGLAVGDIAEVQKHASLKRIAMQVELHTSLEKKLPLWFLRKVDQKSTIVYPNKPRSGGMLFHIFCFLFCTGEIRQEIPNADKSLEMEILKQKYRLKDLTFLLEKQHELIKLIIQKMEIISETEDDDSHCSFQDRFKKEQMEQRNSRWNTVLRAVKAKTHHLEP

TRPA1V1 = assay: Intracellular calcium (Fluo-4, FLIPR) activation of TRPA1V1 cells (co-expressing TRPA1 and TRPV1) by GRAS compounds; assay type: cell-based, human;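 note: HEK293 cells co-expressing TRPA1 and TRPV1, fluorescence read at 488/514 nm after baseline subtraction, recorded every 2 s over 10 min, ionomycin 10 µM and buffer as controls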
[1] = Table 1(c), 1 mM, relative to AITC 30 μM
[2] = Table 1(e), 1 mM, relative to AITC 30 μM
[3] = Table 1(d), 1 mM, relative to AITC 30 μM
[4] = Table 1(d), 100 μM (*), relative to AITC 30 μM
[5] = Table 1(c), 100 μM (*), relative to AITC 30 μM

CCCCC/C=C/C=O [trans-2-Octanal]
A1 activation, % of agonist value (human TRPA1; [1]): 112% | A1V1 activation, % of agonist value (TRPA1V1; [1]): 115%

COC(=O)c1ccccc1NC=O [Methyl o-formamidobenzoate]
activation at 1000 µM (human TRPA1; [1]): 75.4% | A1V1 activation, % of agonist value (TRPA1V1; [1]): 75.64%

Cc1ccc(C=O)c(C)c1 [2,4-Dimethylbenzaldehyde]
activation at 1000 µM (human TRPA1; [1]): 107% | A1V1 activation, % of agonist value (TRPA1V1; [1]): 102.8%

CC(C)=CCC[C@](C)(O)C1CC=C(C)CC1 (stereo partly drawn) [Bisabolol]
activation at 1000 µM (human TRPA1; [1]): 68% | A1V1 activation, % of agonist value (TRPA1V1; [1]): 73.53%

CCCC(=O)OCc1ccccc1 [Benzyl butyrate]
activation at 1000 µM (human TRPA1; [1]): 70% | A1V1 activation, % of agonist value (TRPA1V1; [1]): 64.7%

CCCCCCCCCC=CC=O [2-Dodecenal]
activation at 1000 µM (human TRPA1; [2]): 65.5% | A1V1 activation, % of agonist value (TRPA1V1; [2]): 82.8%

Cn1cccc1C=O [1-Methylpyrrole-2-carboxaldehyde]
activation at 1000 µM (human TRPA1; [1]): 81.1% | A1V1 activation, % of agonist value (TRPA1V1; [1]): 87.70%

CC(=O)CCC1=C(C)CCCC1(C)C [Dihydro-beta-ionone]
A1 activation, % of agonist value (human TRPA1; [1]): 64.4% | A1V1 activation, % of agonist value (TRPA1V1; [1]): 64.07%

CC/C=C\CCCCC=O [cis-6-Nonenal]
activation at 1000 µM (human TRPA1; [1]): 108% | A1V1 activation, % of agonist value (TRPA1V1; [1]): 93%

C=CCOC(=O)Cc1ccccc1 [Allyl phenylacetate]
activation at 1000 µM (human TRPA1; [1]): 86.2% | A1V1 activation, % of agonist value (TRPA1V1; [1]): 84.14%

CC(=O)OCc1ccc(C)cc1 [4-Methylbenzyl acetate]
activation at 1000 µM (human TRPA1; [2]): 58.9% | A1V1 activation, % of agonist value (TRPA1V1; [2]): 88.05%

C=C(C)C1CCC(C)C(=O)C1 (stereo not drawn) [p-Menth-8-en-2-one]
activation at 1000 µM (human TRPA1; [2]): 39.9% | A1V1 activation, % of agonist value (TRPA1V1; [2]): 59.5%

3-mercaptopropanoate
A1 activation, % of agonist value (human TRPA1; [1]): 42.7% | A1V1 activation, % of agonist value (TRPA1V1; [1]): 41.8%

CC1=CC(C)C(C=O)CC1 (stereo not drawn) [Trivertal]
A1 activation, % of agonist value (human TRPA1; [1]): 35.43% | A1V1 activation, % of agonist value (TRPA1V1; [1]): 36.46%

Cc1ccccc1OC(=O)C(C)C [O-Tolyl isobutyrate]
A1 activation, % of agonist value (human TRPA1; [1]): 49.37% | A1V1 activation, % of agonist value (TRPA1V1; [1]): 57.76%

C=C(C)CCCC(C)CCO (stereo not drawn) [3,7-Dimethyl-7-octen-1-ol]
activation at 1000 µM (human TRPA1; [3]): 93.7% | A1V1 activation, % of agonist value (TRPA1V1; [3]): 70.7%

CCCCCCCCCCC=CC=O [2-Tridecenal]
activation at 100 µM (human TRPA1; [4]): 76.3% | A1V1 activation, % of agonist value (TRPA1V1; [1]): 102% and 101% | A1V1 activation, % of agonist value (TRPA1V1; [4]): 43.5%

C=CCc1ccc(OC(=O)CC(C)C)c(OC)c1 [Eugenyl isovalerate]
activation at 1000 µM (human TRPA1; [2]): 59.7% | A1V1 activation, % of agonist value (TRPA1V1; [2]): 79.29%

CC=CC(C)=O [3-Penten-2-one]
activation at 1000 µM (human TRPA1; [3]): 64.2% | A1V1 activation, % of agonist value (TRPA1V1; [3]): 35%

CCCOC(C)OCCc1ccccc1 (stereo not drawn) [Acetaldehyde, phenethyl propyl acetal]
A1 activation, % of agonist value (human TRPA1; [3]): 86.4% | A1V1 activation, % of agonist value (TRPA1V1; [3]): 62.2%

Bisabolene
A1 activation, % of agonist value (human TRPA1; [3]): 77% | A1V1 activation, % of agonist value (TRPA1V1; [3]): 46.2%

CCOC(=O)c1ccccc1O [Ethyl salicylate]
activation at 1000 µM (human TRPA1; [3]): 41% | A1V1 activation, % of agonist value (TRPA1V1; [3]): 28%

CCCC=CC=CC=O [2,4-Octadienal]
activation at 1000 µM (human TRPA1; [1]): 80.9% | A1V1 activation, % of agonist value (TRPA1V1; [1]): 82.7%

CCOC(=O)c1ccccc1 [Ethyl benzoate]
activation at 1000 µM (human TRPA1; [1]): 70% | A1V1 activation, % of agonist value (TRPA1V1; [1]): 60%

C=CC(C)=CCC=C(C)C [beta-Ocimene]
activation at 1000 µM (human TRPA1; [1]): 112% | A1V1 activation, % of agonist value (TRPA1V1; [1]): 92%

CCCC(=O)OCc1ccc(OC)cc1 [p-Methoxybenzyl butyrate]
activation at 1000 µM (human TRPA1; [2]): 34% | A1V1 activation, % of agonist value (TRPA1V1; [2]): 58.97%

C=CC(C)(O)CCC=C(C)C (stereo not drawn) [Linalool]
activation at 1000 µM (human TRPA1; [3]): 52.6% | A1V1 activation, % of agonist value (TRPA1V1; [3]): 20%

C=CCCCN=C=S [Isothiocyanic acid 4-penten-1-yl ester]
activation at 100 µM (human TRPA1; [5]): 51.6% | activation at 1000 µM (human TRPA1; [2]): 62.2% | A1V1 activation, % of agonist value (TRPA1V1; [5]): 47.3% | A1V1 activation, % of agonist value (TRPA1V1; [2]): 74.8%

CC=Cc1ccc(OC(=O)Cc2ccccc2)c(OC)c1 [Isoeugenyl phenylacetate]
activation at 1000 µM (human TRPA1; [1]): 59.1% | A1V1 activation, % of agonist value (TRPA1V1; [1]): 58.40%

CCC(CC)C(=O)O [2-Ethylbutyric acid]
activation at 1000 µM (human TRPA1; [3]): 67.7% | A1V1 activation, % of agonist value (TRPA1V1; [3]): 34.87%

C=C1CC/C=C(\C)CC[C@@H]2[C@@H]1CC2(C)C [beta-Caryophyllene]
activation at 1000 µM (human TRPA1; [3]): 134% | A1V1 activation, % of agonist value (TRPA1V1; [3]): 103.8%

CCCCCC(=O)c1ccco1 [2-Hexanoylfuran]
activation at 1000 µM (human TRPA1; [1]): 118% | A1V1 activation, % of agonist value (TRPA1V1; [1]): 109%

CC1=C(C=O)C(C)(C)CC=C1 [Safranal]
A1 activation, % of agonist value (human TRPA1; [1]): 73% | A1V1 activation, % of agonist value (TRPA1V1; [1]): 74.5%

CC=Cc1ccc(OC(C)=O)c(OC)c1 [Isoeugenyl acetate]
activation at 1000 µM (human TRPA1; [1]): 57.6% | A1V1 activation, % of agonist value (TRPA1V1; [1]): 68.34%

CNc1ccccc1C(=O)OCC(C)C [Isobutyl N-methyl anthranilate]
A1 activation, % of agonist value (human TRPA1; [3]): 59.73% | A1V1 activation, % of agonist value (TRPA1V1; [3]): 36.7%

COC(C=C(C)CCC=C(C)C)OC [Citral dimethyl acetal]
activation at 1000 µM (human TRPA1; [2]): 102% | A1V1 activation, % of agonist value (TRPA1V1; [2]): 137.2%

CCCCC/C=C/C=C/C=O [(E,E)-2,4-Decadienal]
activation at 1000 µM (human TRPA1; [3]): 142% | A1V1 activation, % of agonist value (TRPA1V1; [3]): 46%

CC=CC=CCOC(=O)CC [2,4-Hexadienyl propionate]
activation at 1000 µM (human TRPA1; [1]): 93.2% | A1V1 activation, % of agonist value (TRPA1V1; [1]): 91.20%

C=CCc1ccc(O)c(OC)c1 [Eugenol]
activation at 1000 µM (human TRPA1; [1]): 79% | A1V1 activation, % of agonist value (TRPA1V1; [1]): 91.29%

CCOC(=O)CCc1ccccc1 [Ethyl hydrocinnamate]
activation at 1000 µM (human TRPA1; [3]): 72.2% | A1V1 activation, % of agonist value (TRPA1V1; [3]): 50.9%

C/C=C/C=C/C=O [(E,E)-2,4-Hexadienal]
activation at 1000 µM (human TRPA1; [1]): 92% | A1V1 activation, % of agonist value (TRPA1V1; [1]): 108.71%

COc1ccc(/C=C/C=O)cc1 [Trans-p-methoxy cinnamaldehyde]
activation at 1000 µM (human TRPA1; [2]): 58.8% | A1V1 activation, % of agonist value (TRPA1V1; [2]): 75.99%

CC=C(C=O)c1ccccc1 [2-Phenyl-2-butenal]
activation at 1000 µM (human TRPA1): 65.8% | A1V1 activation, % of agonist value (TRPA1V1): 82.8%

CCOc1ccc(C=O)cc1 [4-Ethoxybenzaldehyde]
activation at 1000 µM (human TRPA1; [2]): 62% | A1V1 activation, % of agonist value (TRPA1V1; [2]): 103%

C=CCCN=C=S [3-Butenyl isothiocyanate]
activation at 1000 µM (human TRPA1; [1]): 99.4% | A1V1 activation, % of agonist value (TRPA1V1; [1]): 85.8%

CC/C=C\CC/C=C/C=O [2-trans-6-cis-Nonadienal]
A1 activation, % of agonist value (human TRPA1; [1]): 77.3% | A1V1 activation, % of agonist value (TRPA1V1; [1]): 81.22%

CCCCCC(=O)CCCC(=O)OCC [Ethyl 5-oxodecanoate]
activation at 1000 µM (human TRPA1; [3]): 51% | A1V1 activation, % of agonist value (TRPA1V1; [3]): 28.24%

C=CCOC(=O)c1ccccc1N [Allyl anthranilate]
activation at 1000 µM (human TRPA1; [1]): 73.8% | A1V1 activation, % of agonist value (TRPA1V1; [1]): 75.03%

CC(C=O)c1ccccc1 (stereo not drawn) [2-Phenylpropionaldehyde]
activation at 1000 µM (human TRPA1; [1]): 105% | A1V1 activation, % of agonist value (TRPA1V1; [1]): 106.9%

O=C(CCl)c1ccccc1 [2-Chloroacetophenone]
activation at 100 µM (human TRPA1): 93.6% | activation at 1000 µM (human TRPA1): 91.4% | A1V1 activation, % of agonist value (TRPA1V1; [5]): 88.8% | A1V1 activation, % of agonist value (TRPA1V1; [1]): 103%

CC(=O)O[C@@H]1C[C@H](C)CC[C@H]1C(C)C [L-Menthyl acetate]
A1 activation, % of agonist value (human TRPA1; [2]): 44.88% | A1V1 activation, % of agonist value (TRPA1V1; [2]): 60.47%

C=CC(=O)CC [Ethyl vinyl ketone]
activation at 1000 µM (human TRPA1; [3]): 79.5% | A1V1 activation, % of agonist value (TRPA1V1; [3]): 40.61%

CC(C)CCN=C=S [3-Methylbutyl isothiocyanate]
activation at 1000 µM (human TRPA1; [2]): 61.1% | A1V1 activation, % of agonist value (TRPA1V1; [2]): 111.2%

Cc1c(C(=O)O)c(O)cc2c1C(=O)c1c(O)c(C3O[C@H](CO)[C@@H](O)[C@H](O)[C@H]3O)c(O)c(O)c1C2=O (stereo in doubt) [Carmine]
activation at 1000 µM (human TRPA1; [1]): 66.2% | A1V1 activation, % of agonist value (TRPA1V1; [1]): 61.54%

CC(=O)c1ccc(C)cc1C [2′,4′-Dimethylacetophenone]
activation at 1000 µM (human TRPA1; [2]): 24.4% | A1V1 activation, % of agonist value (TRPA1V1; [2]): 45.30%

C=CC(O)CCCCCCC (stereo not drawn) [dec-1-en-3-ol]
activation at 1000 µM (human TRPA1; [3]): 90% | A1V1 activation, % of agonist value (TRPA1V1; [3]): 69.5%

From patent publication US9427415B2, “Methods and compositions for modifying sensorial perception” (The Procter & Gamble Company, priority 2014, dated 2016)
